According to patent US20230139171A1 (SITA Information Networking Computing UK Limited, priority 2019, published 2023):

Legend:
human TLR7 = target: T1, human TLR7 (Homo sapiens, UniProt Q9NYK1); experiment: TLR7 inhibition reporter assay (HEK-Blue cells, SEAP reporter, gardiquimod stimulation); assay type: cell-based; conditions: HEK-Blue cells overexpressing human TLR7, SEAP reporter, gardiquimod 7.5 μM; read-out: TLR7 IC50
T1 construct: host or cells: HEK-Blue cells
T1 sequence (Q9NYK1 27-1049): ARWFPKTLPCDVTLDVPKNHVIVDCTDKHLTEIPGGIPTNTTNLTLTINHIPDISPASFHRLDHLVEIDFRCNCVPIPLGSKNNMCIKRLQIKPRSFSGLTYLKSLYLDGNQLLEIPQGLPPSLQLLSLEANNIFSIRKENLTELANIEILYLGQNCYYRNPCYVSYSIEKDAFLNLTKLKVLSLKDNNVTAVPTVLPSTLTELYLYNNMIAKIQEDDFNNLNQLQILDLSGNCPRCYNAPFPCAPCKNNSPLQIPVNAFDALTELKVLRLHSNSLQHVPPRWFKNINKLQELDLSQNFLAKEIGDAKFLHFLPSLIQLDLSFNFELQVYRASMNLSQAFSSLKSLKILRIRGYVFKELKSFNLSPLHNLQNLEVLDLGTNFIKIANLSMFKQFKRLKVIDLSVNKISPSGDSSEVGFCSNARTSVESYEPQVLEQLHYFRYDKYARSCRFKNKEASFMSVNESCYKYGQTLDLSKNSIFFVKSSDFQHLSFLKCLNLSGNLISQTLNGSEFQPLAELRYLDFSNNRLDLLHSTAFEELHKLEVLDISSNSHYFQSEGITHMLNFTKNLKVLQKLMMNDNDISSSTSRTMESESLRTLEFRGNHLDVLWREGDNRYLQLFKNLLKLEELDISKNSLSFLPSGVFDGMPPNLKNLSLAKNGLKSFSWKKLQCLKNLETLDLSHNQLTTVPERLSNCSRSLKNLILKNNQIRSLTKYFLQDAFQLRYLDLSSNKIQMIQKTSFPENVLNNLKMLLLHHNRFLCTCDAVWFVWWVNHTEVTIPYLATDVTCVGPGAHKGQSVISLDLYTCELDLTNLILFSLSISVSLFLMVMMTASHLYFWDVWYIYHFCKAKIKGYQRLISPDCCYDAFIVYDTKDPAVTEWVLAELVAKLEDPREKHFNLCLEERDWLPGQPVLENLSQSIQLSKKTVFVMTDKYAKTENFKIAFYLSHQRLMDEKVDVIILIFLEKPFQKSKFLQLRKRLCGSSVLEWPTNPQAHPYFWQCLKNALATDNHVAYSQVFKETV
Description: (§1) TLR7/8/9 Inhibition Reporter Assays
(§2) HEK-Blue™-cells (Invivogen) overexpressing human TLR7, TLR8 or TLR9 receptors were used for screening inhibitors of these receptors using an inducible SEAP (secreted embryonic alkaline phosphatase) reporter gene under the control of the IFN-β minimal promoter fused to five NF-κB and AP-1-binding sites. Briefly, cells are seeded into Greiner 384 well plates (15000 cells per well for TLR7, 20,000 for TLR8 and 25,000 for TLR9) and then treated with test compounds in DMSO to yield a final dose response concentration range of 0.05 nM-50 μM. After a 30 minute compound pre-treatment at room temperature, the cells are then stimulated with a TLR7 ligand (gardiquimod at a final concentration of 7.5 μM), TLR8 ligand (R848 at a final concentration of 15.9 μM) or TLR9 ligand (ODN2006 at a final concentration of 5 nM) to activate NF-κB and AP-1 which induce the production of SEAP. After a 22 hour incubation at 37° C., 5% CO2, SEAP levels are determined with the addition of HEK-Blue™ Detection reagent (Invivogen), a cell culture medium that allows for detection of SEAP, according to manufacturer's specifications. The percent inhibition is determined as the % reduction in the HEK-Blue signal present in wells treated with agonist plus DMSO alone compared to wells treated with a known inhibitor.

human TLR8 = target: T2, human TLR8 (Homo sapiens, UniProt Q9NR97); experiment: TLR8 inhibition reporter assay (HEK-Blue cells, SEAP reporter, R848 stimulation); assay type: cell-based; conditions: HEK-Blue cells overexpressing human TLR8, SEAP reporter, R848 15.9 μM; read-out: TLR8 IC50
T2 construct: host or cells: HEK-Blue cells
T2 sequence (Q9NR97 27-1041): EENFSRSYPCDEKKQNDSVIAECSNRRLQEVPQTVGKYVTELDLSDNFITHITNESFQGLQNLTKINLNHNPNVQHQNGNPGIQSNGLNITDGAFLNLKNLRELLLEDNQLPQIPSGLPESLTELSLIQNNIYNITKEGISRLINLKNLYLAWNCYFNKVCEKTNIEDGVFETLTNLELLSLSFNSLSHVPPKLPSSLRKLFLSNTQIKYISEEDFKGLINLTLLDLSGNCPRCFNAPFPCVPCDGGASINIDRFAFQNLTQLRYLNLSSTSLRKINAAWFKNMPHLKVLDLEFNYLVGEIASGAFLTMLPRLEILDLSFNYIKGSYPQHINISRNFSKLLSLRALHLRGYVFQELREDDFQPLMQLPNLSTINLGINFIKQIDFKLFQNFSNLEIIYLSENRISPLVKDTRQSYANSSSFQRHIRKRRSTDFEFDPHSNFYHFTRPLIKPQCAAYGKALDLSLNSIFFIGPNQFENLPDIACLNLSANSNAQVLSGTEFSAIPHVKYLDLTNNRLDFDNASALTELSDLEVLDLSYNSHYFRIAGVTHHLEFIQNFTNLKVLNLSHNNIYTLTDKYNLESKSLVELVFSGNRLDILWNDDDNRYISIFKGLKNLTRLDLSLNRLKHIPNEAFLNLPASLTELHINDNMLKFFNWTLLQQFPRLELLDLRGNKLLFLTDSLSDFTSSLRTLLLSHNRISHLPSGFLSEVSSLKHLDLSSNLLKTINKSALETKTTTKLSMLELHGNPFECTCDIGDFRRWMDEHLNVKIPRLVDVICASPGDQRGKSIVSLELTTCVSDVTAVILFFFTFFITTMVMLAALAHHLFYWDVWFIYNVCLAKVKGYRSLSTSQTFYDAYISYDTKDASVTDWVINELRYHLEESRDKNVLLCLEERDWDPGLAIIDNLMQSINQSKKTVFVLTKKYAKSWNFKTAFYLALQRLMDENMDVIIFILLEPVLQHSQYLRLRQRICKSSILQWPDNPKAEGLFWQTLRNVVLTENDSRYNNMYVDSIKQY
Description: as §1, §2

Row | Structure (SMILES) | IC50 (human TLR7) | IC50 (human TLR8)
1 | Cc1c(-c2[nH]c3sc(N4CCN(CC(N)=O)CC4)nc3c2C(C)C)cn2ncnc2c1C [Example 285, 2-(4-(5-(7,8-dimethyl-[1,2,4]triazolo[1,5-a]pyridin-6-yl)-6-isopropyl-4H-pyrrolo[3,2-d]thiazol-2-yl)piperazin-1-yl)acetamide] | 7.7 nM | 2.71 nM
2 | Cc1c(-c2[nH]c3sc(N4CCN(C5COC5)CC4)nc3c2C(C)C)cn2ncnc2c1C [Example 286, 5-(7,8-dimethyl-[1,2,4]triazolo[1,5-a]pyridin-6-yl)-6-isopropyl-2-(4-(oxetan-3-yl)piperazin-1-yl)-4H-pyrrolo[3,2-d]thiazole] | 25.6 nM | 14.6 nM
3 | Cc1c(-c2[nH]c3sc(N4CC5(C4)CN(C4COC4)C5)nc3c2C(C)C)cn2ncnc2c1C [Example 302, 5-(7,8-dimethyl-[1,2,4]triazolo[1,5-a]pyridin-6-yl)-6-isopropyl-2-(6-(oxetan-3-yl)-2,6-diazaspiro[3.3]heptan-2-yl)-4H-pyrrolo[3,2-d]thiazole] | 9.44 nM | 14.2 nM
4 | Cc1c(-c2[nH]c3sc(N4CC5(CN(CCS(C)(=O)=O)C5)C4)nc3c2C(C)C)cn(C)c(=O)c1C [Example 305, 5-(6-isopropyl-2-(6-(2-(methylsulfonyl)ethyl)-2,6-diazaspiro[3.3]heptan-2-yl)-4H-pyrrolo[3,2-d]thiazol-5-yl)-1,3,4-trimethylpyridin-2(1H)-one] | 311 nM | 70 nM
5 | Cc1c(-c2[nH]c3sc(N4CC5(C4)CN(C4COC4)C5)nc3c2C(C)C)cn(C)c(=O)c1C [Example 306, 5-(6-isopropyl-2-(6-(oxetan-3-yl)-2,6-diazaspiro[3.3]heptan-2-yl)-4H-pyrrolo[3,2-d]thiazol-5-yl)-1,3,4-trimethylpyridin-2(1H)-one] | 148 nM | 124 nM
6 | Cc1c(-c2[nH]c3sc(N4CC5(CN(CC6CCOCC6)C5)C4)nc3c2C(C)C)cn(C)c(=O)c1C [Example 307, 5-(6-isopropyl-2-(6-((tetrahydro-2H-pyran-4-yl)methyl)-2,6-diazaspiro[3.3]heptan-2-yl)-4H-pyrrolo[3,2-d]thiazol-5-yl)-1,3,4-trimethylpyridin-2(1H)-one] | 118 nM | 9.33 nM
7 | Cc1c(-c2[nH]c3sc(N4CCN(CC(=O)N(C)C)C[C@H]4C)nc3c2C(C)C)cn2ncnc2c1C [Example 312, (R)-2-(4-(5-(7,8-dimethyl-[1,2,4]triazolo[1,5-a]pyridin-6-yl)-6-isopropyl-4H-pyrrolo[3,2-d]thiazol-2-yl)-3-methylpiperazin-1-yl)-N,N-dimethylacetamide] | 5.42 nM | 17.8 nM
8 | Cc1c(-c2[nH]c3sc(N4CCN(CC(N)=O)C[C@H]4C)nc3c2C(C)C)cn2ncnc2c1C [Example 313, (R)-2-(4-(5-(7,8-dimethyl-[1,2,4]triazolo[1,5-a]pyridin-6-yl)-6-isopropyl-4H-pyrrolo[3,2-d]thiazol-2-yl)-3-methylpiperazin-1-yl)acetamide] | 3.71 nM | 1.72 nM
9 | Cc1c(-c2[nH]c3sc(N4CCN(CCS(C)(=O)=O)C[C@H]4C)nc3c2C(C)C)cn2ncnc2c1C [Example 314, (R)-5-(7,8-dimethyl-[1,2,4]triazolo[1,5-a]pyridin-6-yl)-6-isopropyl-2-(2-methyl-4-(2-(methylsulfonyl)ethyl)piperazin-1-yl)-4H-pyrrolo[3,2-d] thiazole] | 13.9 nM | 18.5 nM
10 | CNC(=O)CN1CCN(c2nc3c(C(C)C)c(-c4cn5ncnc5c(C)c4C)[nH]c3s2)[C@H](C)C1 [Example 315, (R)-2-(4-(5-(7,8-dimethyl-[1,2,4]triazolo[1,5-a]pyridin-6-yl)-6-isopropyl-4H-pyrrolo[3,2-d]thiazol-2-yl)-3-methylpiperazin-1-yl)-N-methylacetamide] | 5.22 nM | 20.2 nM
11 | Cc1c(-c2[nH]c3sc(N4CCN(C5COC5)C[C@H]4C)nc3c2C(C)C)cn2ncnc2c1C [Example 316, (R)-5-(7,8-dimethyl-[1,2,4]triazolo[1,5-a]pyridin-6-yl)-6-isopropyl-2-(2-methyl-4-(oxetan-3-yl)piperazin-1-yl)-4H-pyrrolo[3,2-d]thiazole] | 12 nM | 52.4 nM
12 | Cc1c(-c2[nH]c3sc(N4C[C@@H](C)N(CC(=O)N(C)C)C[C@@H]4C)nc3c2C(C)C)cn2ncnc2c1C [Example 335, 2-((2R,5S)-4-(5-(7,8-dimethyl-[1,2,4]triazolo[1,5-a]pyridin-6-yl)-6-isopropyl-4H-pyrrolo[3,2-d]thiazol-2-yl)-2,5-dimethylpiperazin-1-yl)-N,N-dimethylacetamide] | 15.5 nM | 11.1 nM
13 | CNC(=O)CN1CCN(c2nc3c(C(C)C)c(-c4cn5ncnc5c(C)c4C)[nH]c3s2)[C@@H](C)C1 [Example 342, (S)-2-(4-(5-(7,8-dimethyl-[1,2,4]triazolo[1,5-a]pyridin-6-yl)-6-isopropyl-4H-pyrrolo[3,2-d]thiazol-2-yl)-3-methylpiperazin-1-yl)-N-methylacetamide] | 19.6 nM | 12.6 nM
14 | Cc1c(-c2[nH]c3sc(N4CCN(CC(=O)N(C)C)C[C@@H]4C)nc3c2C(C)C)cn2ncnc2c1C [Example 343, (S)-2-(4-(5-(7,8-dimethyl-[1,2,4]triazolo[1,5-a]pyridin-6-yl)-6-isopropyl-4H-pyrrolo[3,2-d]thiazol-2-yl)-3-methylpiperazin-1-yl)-N,N-dimethylacetamide] | 24.1 nM | 3.3 nM
15 | Cc1c(-c2[nH]c3sc(N4CCN(CCS(C)(=O)=O)C[C@@H]4C)nc3c2C(C)C)cn2ncnc2c1C [Example 344, (S)-5-(7,8-dimethyl-[1,2,4]triazolo[1,5-a]pyridin-6-yl)-6-isopropyl-2-(2-methyl-4-(2-(methylsulfonyl)ethyl)piperazin-1-yl)-4H-pyrrolo[3,2-d]thiazole] | 39 nM | 12.7 nM
